Experimental data from patent publication US8618051B2, “Vesiculins” (Auckland Uniservices Limited, priority 2005, dated 2013).

System: rat soleus muscle strips
Assay: rat soleus muscle assay: D-[14C(U)]-glucose incorporation into muscle glycogen
Details: isolated soleus muscle strips of fasted male Wistar rats; peptide 0.71 nM to 237 nM; 120 minutes at 30° C.; read-out: EC50, stimulating the uptake and incorporation of radioactive glucose into muscle glycogen
Experimental: The soleus muscle was dissected from anaesthetized fasted male Wistar rats (200 g±20 g). Each muscle was then teased longitudinally into 3 equal strips with a final radius of approximately 1.5 mm. An average of six muscle strips were transferred into flasks, containing 10 ml of carbogen-saturated nDMEM and peptide (vesiculin, insulin-II, or commercial human IGF-II (GroPep)) at concentrations ranging from 0.71 nM to 237 nM, before the addition of 10 μl of (0.5 μCi) D-[^14C(U)]-Glucose. Flasks were then incubated in a shaking water bath for 120 minutes at 30° C. under a stream of carbogen.
After incubation, the muscle strips were removed and blotted dry before being frozen instantly in liquid nitrogen and freeze-dried for 24 hours. The dried weight of muscle strip was recorded before the muscle strips were solubilised in 250 μl of 60% KOH (70° C. water bath for 45 minutes). 750 μl of ice-cold ethanol was then added and the tubes were left overnight at −20° C. to facilitate glycogen precipitation. Tubes were then centrifuged at 9000 g for 15 minutes at 0° C., the supernatant aspirated and the glycogen pellet resuspended in 750 μl of ice-cold ethanol. […] The tubes were mixed thoroughly, and then counted using a Beckman LS 3801 β-counter. The amount of D-[^14C(U)]-Glucose incorporation into muscle glycogen was calculated by dividing the cpm values by the dry muscle weight. […]

Substance | EC50 [nM]
human IGF-II: commercial human IGF-II (GroPep), used as a further positive control | 48
mouse insulin-II: insulin-II co-purified from βTC6-F7 granules as a preparative control | 27
